Values joined by “and” are separate entries in the source; they are usually repeats but may differ in a detail not shown here. Equal values may be shown once. Read-outs that look alike come from different tables or passages of the source.
How the values were obtained:
[1] = system: X- and Y-chromosome bearing bovine sperm stained with Hoechst 33342; test: Split quality: height of peak divided by height of valley (PV), flow cytometry of stained bovine sperm; assay type: cell-based; conditions: Ex 10; for peak to valley ratio, average 8 bulls: Hoechst 64 μM
[2] = system: membrane compromised bovine sperm stained with Hoechst 33342; test: Dead quenching: dead gate intensity divided by live gate intensity, flow cytometry of stained bovine sperm; assay type: cell-based; conditions: Ex 10; Y6 25 μM
Text: FIG. 4 illustrates an example bivariate plot and univariate histogram of the parameters measured during sex selection by a FACS on a flow cytometer. […] Without a dead quenching dye, both populations of sperm would overlap to a large extent, with unpredictable variations in the dead sperm.
The entire ejaculate of sperm was suspended in first staining buffer, specifically a 7.4 pH TALP described in TABLE 1, to a concentration of 160×10^6 sperm per mL (determined on nucleocounter) and divided into three aliquots of about 20 mL into 50 mL Falcon tubes and pre-warmed for 10 minutes at 34° C. The DNA selective fluorescent dye, Hoechst 33342, was added and samples were held at 34° C. for 60 minutes. 3 different Hoechst 33342 Stain Levels were used=12 μL, 14 μL and 16 μL per 2 mL (effective concentrations of 48 μM, 56 μM, 64 μM).
Preparation of the second buffer including the dead quenching dye—A 2 L bag of TALP, described in TABLE 1, was adjusted to pH 5.60 using HCl and then sterile filtered. […] For each of the four dyes tested (R40—red food dye No. 40, Y5—yellow food dye No. 5, Y6—yellow food dye No. 6 and PR—phenol red), an appropriate number of milligrams of each powder was placed in a Erlenmeyer Flask and then an exact amount of TALP pH 5.60 was added to create a […] concentration of the dye. The result was a working TALP stock for each dye with a 100% (125 μM) relative amount of dye 50% relative (62.5 μM) and 20% relative (25 μM) solutions were made by dilution of 100% by TALP pH 5.60.
After this “bulk” staining for 60 minutes, 1 mL aliquots of stained sperm were combined with 1 mL aliquots of the second buffer including the dead quenching dyes. Samples sat for approximately 30 minutes at room temperature before being analyzed on a MoFlo SX (Beckman Coulter, USA) sperm sorting flow cytometer. Event rates were held as close to 13,000 as possible at the point of data acquisition.
The total number of individual treatments was 42 tubes, each containing 2 mL of stained sample. The alignment of the sorter was established using nuclei and confirmed with live sample from the 50% Red 40 series. Once good alignment was established, each tube was placed on the sorter long enough to establish a stabile dead gate population (about 30 seconds) and then a screenshot was taken and saved as a .jpeg image. This approach of rapidly documenting each sample is used to assure the most consistent alignment between all samples. Realignment of sorter will not cause differences in the intensities of live and dead gate populations but will cause differences in split quality.
FIG. 4 illustrates an example histogram. The ratio of dead gate intensity divided by live gate intensity is created by dividing the distance “A” by the distance “B” shown as a percentage. Lower values mean higher levels of quenching. The ratio of peak height divided by valley height is created by dividing the distance “C” by the distance “D”. A value of 1.00 means “no split” while higher values mean “better splits”. […]

[3] = cited from earlier work; for Expected Absorption Maxima: solvent water, listed as Red 4 (natural)
sperm = conditions: background statement; cited from earlier work

Cc1c(C(=O)O)c(O)cc2c1C(=O)c1c(O)c(C3O[C@H](CO)[C@@H](O)[C@H](O)[C@H]3O)c(O)c(O)c1C2=O (stereo in doubt) [Red 4, carmine]
split enhancing effect compared to control, in words ([1]; 15, 45, 125 μM, averaged over 8 bulls): distinct improvements at all concentrations and at all times
peak to valley ratio, average 8 bulls ([1]; split enhancing dye 15 μM, 30 Min incubation, Y6 25 μM in second buffer): 1.09
peak to valley ratio, average 8 bulls ([1]; split enhancing dye 15 μM, 45 Min, Y6 25 μM): 1.44
peak to valley ratio, average 8 bulls ([1]; split enhancing dye 15 μM, 60 Min, Y6 25 μM): 1.79
peak to valley ratio, average 8 bulls ([1]; split enhancing dye 15 μM, 75 Min, Y6 25 μM): 1.91
peak to valley ratio, average 8 bulls ([1]; split enhancing dye 45 μM, 30 Min, Y6 25 μM): 1.18
peak to valley ratio, average 8 bulls ([1]; split enhancing dye 45 μM, 45 Min, Y6 25 μM): 1.50
peak to valley ratio, average 8 bulls ([1]; split enhancing dye 45 μM, 60 Min, Y6 25 μM): 1.76
peak to valley ratio, average 8 bulls ([1]; split enhancing dye 45 μM, 75 Min, Y6 25 μM): 1.94
peak to valley ratio, average 8 bulls ([1]; split enhancing dye 125 μM, 30 Min, Y6 25 μM): 1.13
peak to valley ratio, average 8 bulls ([1]; split enhancing dye 125 μM, 45 Min, Y6 25 μM): 1.45
peak to valley ratio, average 8 bulls ([1]; split enhancing dye 125 μM, 60 Min, Y6 25 μM): 1.81
peak to valley ratio, average 8 bulls ([1]; split enhancing dye 125 μM, 75 Min, Y6 25 μM): 1.95
dead quenching capacity of split enhancing dye in combination with yellow food dye No. 6 (FIG. 8) [2]: significant increase in quenching the dead subpopulation
(local) maximum absorption wavelength, as believed ([3]; phenol red in the red molecular form, listed as red food dye No. 4): 520 nm and 555 nm
Expected Absorption Maxima ([3]; longer-wavelength local maximum): 555 nm
Expected Absorption Maxima ([3]; shorter-wavelength local maximum): 520 nm

CC[N+](C)(CC)CCC[n+]1c(-c2ccccc2)c2cc(N)ccc2c2ccc(N)cc21.[I-].[I-] [propidium iodine]
toxicity to sperm (sperm): toxic to sperm

— patent publication US9140688B2, “Sperm staining and sorting methods” (INGURAN, LLC, priority 2011, dated 2015)
